In PubChem BioAssay (NCI):
Several values for one entry are separate records, joined by “and”; a condition that tells them apart may be missing. Identical values can stand only once.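 Exposure lasted 48 hours, with cells grown in 96-well plates and compounds tested at five concentrations. GI50 is the concentration that inhibits growth by half. The concentration for full growth arrest is given as TGI.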

What was measured:
Assay in all cases: growth of human tumour cells (NCI), 48 h
[1] = system: 786-0 renal
[2] = system: ACHN renal
[3] = system: EKVX NSCLC
[4] = system: HS 578T breast
[5] = system: MOLT-4 leukemia
[6] = system: NCI/ADR-RES ovarian
[7] = system: SF-268 CNS
[8] = system: SK-MEL-2 melanoma
[9] = system: SK-MEL-28 melanoma
[10] = system: T-47D breast

In the case of CCCCCCCCCCCCOC1C(C(CC(=O)N2CCN(c3cccc(C(F)(F)F)c3)CC2)NS(=O)(=O)c2cc(Cl)cc(Cl)c2)OC2OC(C)(C)OC21 (stereo not given), the GI50 [1] is reported as > 100 µM, the TGI [1] is reported as > 100 µM and the GI50 [2] is reported as > 100 µM. For the same compound, the TGI [2] was > 100 µM, the GI50 [3] was > 100 µM and the TGI [3] was > 100 µM. For the same compound, the GI50 [4] was > 100 µM, the TGI [4] was > 100 µM and the GI50 [5] was > 100 µM. The TGI [5] was > 100 µM, the GI50 [6] was > 100 µM and the TGI [6] was > 100 µM. For the same compound, the GI50 [7] was > 100 µM, the TGI [7] was > 100 µM and the GI50 [8] was > 100 µM. The TGI [8] was > 100 µM, the GI50 [9] was > 100 µM and the TGI [9] was > 100 µM. For the same compound, the GI50 [10] was > 100 µM and the TGI [10] was > 100 µM.

Compound O=C(/C(=C/c1ccc([N+](=O)[O-])cc1)SCc1ccc(F)cc1)c1ccc(Cl)cc1 has a GI50 [1] of 10.9 µM, a TGI [1] of 24.6 µM and a GI50 [2] of 1.96 µM. The TGI [2] was 4.1 µM, the GI50 [3] was 11.5 µM and the TGI [3] was 38.6 µM. For the same compound, the GI50 [4] was 3 µM, the TGI [4] was 9.32 µM and the GI50 [5] was 3.54 µM. For the same compound, the TGI [5] was > 100 µM, the GI50 [6] was 4.57 µM and the TGI [6] was > 100 µM. For the same compound, the GI50 [7] was 9.44 µM, the TGI [7] was 33.5 µM and the GI50 [8] was 13.8 µM. The TGI [8] was 36.4 µM, the GI50 [9] was 16.4 µM and the TGI [9] was 45.8 µM. The GI50 [10] was 7 µM and the TGI [10] was 26.2 µM.

In the case of Cc1ncsc1-c1ccc(CNC(=O)[C@@H]2C[C@@H](O)CN2C(=O)[C@@H](NC(=O)C2(C#N)CC2)C(C)(C)C)cc1, the GI50 [1] is reported as > 100 µM, the TGI [1] is reported as > 100 µM and the GI50 [2] is reported as > 100 µM. For the same compound, the TGI [2] was > 100 µM, the GI50 [3] was 35.2 µM and the TGI [3] was > 100 µM. The GI50 [4] was 50.5 µM, the TGI [4] was > 100 µM and the GI50 [5] was > 100 µM. The TGI [5] was > 100 µM, the GI50 [6] was > 100 µM and the TGI [6] was > 100 µM. The GI50 [7] was > 100 µM, the TGI [7] was > 100 µM and the GI50 [8] was > 100 µM. The TGI [8] was > 100 µM, the GI50 [9] was > 100 µM and the TGI [9] was > 100 µM. For the same compound, the GI50 [10] was > 100 µM and the TGI [10] was > 100 µM.

C/C(=C(\c1ccc(OCCN2CCCCCC2)cc1)c1ccc(OC(=O)Cc2ccccc2)cc1)c1ccc(Cl)cc1 showed a GI50 [1] of 1.78 µM, a TGI [1] of 3.85 µM and a GI50 [2] of 2.63 µM. The TGI [2] was 4.93 µM, the GI50 [3] was 2.6 µM and the TGI [3] was 7.8 µM. It also gave a GI50 [4] of 2.86 µM, a TGI [4] of 6.52 µM and a GI50 [5] of 3.09 µM. For the same compound, the TGI [5] was 13.4 µM, the GI50 [6] was 2.99 µM and the TGI [6] was 6.86 µM. For the same compound, the GI50 [7] was 2.84 µM, the TGI [7] was 6.11 µM and the GI50 [8] was 3.98 µM. For the same compound, the TGI [8] was 8.72 µM, the GI50 [9] was 2.52 µM and the TGI [9] was 5.03 µM. The GI50 [10] was 1.95 µM and the TGI [10] was 6.42 µM.

COc1cnc2c(c1)C(=O)c1c-2n(CCCNC(C)C)c(=O)c2cc(F)ccc12 showed a GI50 [1] of 0.116 µM, a TGI [1] of 0.482 µM and a GI50 [2] of 0.0565 µM. The TGI [2] was 0.229 µM, the GI50 [3] was 0.299 µM and the TGI [3] was 1.73 µM. The GI50 [4] was 0.754 µM, the TGI [4] was 5.22 µM and the GI50 [5] was 0.0362 µM. It also gave a TGI [5] of 0.267 µM, a GI50 [6] of 0.234 µM and a TGI [6] of 1.81 µM. For the same compound, the GI50 [7] was 0.207 µM, the TGI [7] was 1.68 µM and the GI50 [8] was 0.51 µM. For the same compound, the TGI [8] was 1.92 µM, the GI50 [9] was 0.94 µM and the TGI [9] was 2.51 µM. The GI50 [10] was 0.0846 µM and the TGI [10] was 0.651 µM.

With N#CS.N=C=S.N=C=S.[Cu+2].[NH2-].[NH2-].[NH2-].[NH2-].c1ccc2ncccc2c1 the GI50 [1] was > 100 µM, the TGI [1] was > 100 µM and the GI50 [2] was > 100 µM. For the same compound, the TGI [2] was > 100 µM, the GI50 [3] was 47.4 µM and the TGI [3] was > 100 µM. The GI50 [4] was 29.4 µM, the TGI [4] was > 100 µM and the GI50 [5] was > 100 µM. For the same compound, the TGI [5] was > 100 µM, the GI50 [6] was > 100 µM and the TGI [6] was > 100 µM. For the same compound, the GI50 [7] was 49.7 µM, the TGI [7] was > 100 µM and the GI50 [8] was > 100 µM. The TGI [8] was > 100 µM, the GI50 [9] was > 100 µM and the TGI [9] was > 100 µM. For the same compound, the GI50 [10] was > 100 µM and the TGI [10] was > 100 µM.

With S=C(N/N=C(/c1ccccc1)c1ccccn1)N1CCCCCC1 the GI50 [1] was < 0.001 µM, the TGI [1] was 1.46 µM and 1.77 µM and the GI50 [2] was 0.00216 µM. For the same compound, the TGI [2] was 1.58 µM and 1.47 µM, the GI50 [3] was 0.641 µM and the TGI [3] was 1.94 µM and 0.365 µM. The GI50 [4] was 1.54 µM, the TGI [4] was 7.58 µM and 7.59 µM and the GI50 [5] was < 0.001 µM. The TGI [5] was 0.00191 µM, the GI50 [6] was < 0.001 µM and the TGI [6] was 1.28 µM and 2.54 µM. The TGI [7] was 1.96 µM and 2.87 µM, the GI50 [8] was 0.0269 µM and the TGI [8] was 2.12 µM and 2.14 µM. For the same compound, the GI50 [9] was 0.863 µM and 0.639 µM, the TGI [9] was 2.41 µM and 2.15 µM and the GI50 [10] was < 0.001 µM.

For CCCCCCCCCCCCCCCCOP(=O)(O)OP(=O)(O)OCC1OC(n2ccc(N)nc2=O)C(O)C1O (stereo not given), the GI50 [1] was > 100 µM and 26.2 µM, the TGI [1] was > 100 µM and the TGI [2] was > 100 µM. For the same compound, the TGI [3] was > 100 µM, the TGI [4] was > 100 µM and the TGI [5] was > 100 µM. For the same compound, the GI50 [6] was > 100 µM and 13.7 µM, the TGI [6] was > 100 µM and the TGI [7] was > 100 µM. For the same compound, the TGI [8] was > 100 µM, the TGI [9] was > 100 µM and the TGI [10] was > 100 µM.
